Test results from paper PMC12396409, “Screening and hit evaluation of a microbial metabolite library against the pathogenic Plasmodium falciparum and Toxoplasma gondii parasites” (International Journal for Parasitology: Drugs and Drug …, 2025).
Read-outs that look alike come from different tables or passages of the source.

Key:
[1] = system: P. falciparum 3D7 parasites; assay: P. falciparum growth inhibition assay, 2-cycle (120 h treatment), delayed-death screen and dose-response; assay type: cell-based, Plasmodium falciparum; conditions: for activity at 2 µg/mL: Plasmodium falciparum
[2] = system: T. gondii RH strain (RH-Tub-eYFP) tachyzoites; assay: microbe, parasite or virus in culture; assay type: cell-based, Toxoplasma gondii; conditions: for percent parasite growth at 2 µg/mL: Toxoplasma gondii
[3] = system: P. falciparum 3D7 parasites; assay: P. falciparum growth inhibition assay, 1-cycle (72 h treatment), SYBR DNA staining (library screen at 2 μg/mL and dose-response); assay type: cell-based, Plasmodium falciparum; conditions: for activity at 2 µg/mL: Plasmodium falciparum
[4] = library screen at 2 μg/mL, 120 h, % growth, replicate 1
[5] = library screen at 2 μg/mL, 120 h, % growth, replicate 2
[6] = library screen at 2 μg/mL, 72 h, % growth, replicate 1
[7] = library screen at 2 μg/mL, 72 h, % growth, replicate 2

CCC[C@@H]1C[C@@H](C(=O)N[C@@H]([C@H]2O[C@H](SC)[C@H](OP(=O)(O)O)[C@@H](O)[C@H]2O)[C@H](C)Cl)N(C)C1 [Clindamycin 2-phosphate, reference compound]
2) Growth (%) at 120 h [1]: 9.80% | 3) Fold change (72 h/120 h) [1]: 6.9 | Pf_120h_%Growth_Rep1 [1]: 15.54% | Pf_120h_%Growth_Rep2 [1]: 4.05% | Tg_72h_%Growth_Rep1 [2]: 25.11% | Tg_72h_%Growth_Rep2 [2]: 20.67% | 1) Growth (%) at 72 h [3]: 67.91% | Pf_72h_%Growth_Rep1 [3]: 73.78% | Pf_72h_%Growth_Rep2 [3]: 62.04%

CO[C@H]1C[C@H](O[C@H]2[C@H](C)O[C@@H](O[C@@H]3/C(C)=C/C[C@@H]4C[C@@H](C[C@]5(C=C[C@H](C)[C@@H](C(C)C)O5)O4)OC(=O)[C@@H]4C=C(C)[C@@H](O)[C@H]5OC/C(=C\C=C\[C@@H]3C)[C@]54O)C[C@@H]2OC)O[C@@H](C)[C@@H]1O [Avermectin B1b]
Pf_120h_%Growth_Rep1 [1, 4]: 7.97% | Pf_120h_%Growth_Rep2 [1, 5]: -7.80% | Tg_72h_%Growth_Rep1 [2, 6]: 74.43% | Tg_72h_%Growth_Rep2 [2, 7]: 75.78% | Pf_72h_%Growth_Rep1 [3, 6]: 8.18% | Pf_72h_%Growth_Rep2 [3, 7]: 3.73%

NC(=O)c1cccc2nc3ccccc3nc12 [BIA-O1527]
Pf_120h_%Growth_Rep1 ([1]; P. falciparum 3D7, 120 h, parasite screen at 2 μg/mL, % growth, replicate 1): 104.27% | Pf_120h_%Growth_Rep2 ([1]; P. falciparum 3D7, 120 h, parasite screen at 2 μg/mL, % growth, replicate 2): 111.59% | Tg_72h_%Growth_Rep1 ([2]; T. gondii, 72 h, parasite screen at 2 μg/mL, % growth, replicate 1): 111.76% | Tg_72h_%Growth_Rep2 ([2]; T. gondii, 72 h, parasite screen at 2 μg/mL, % growth, replicate 2): 91.86% | Pf_72h_%Growth_Rep1 ([3]; P. falciparum 3D7, 72 h, parasite screen at 2 μg/mL, % growth, replicate 1): 73.74% | Pf_72h_%Growth_Rep2 ([3]; P. falciparum 3D7, 72 h, parasite screen at 2 μg/mL, % growth, replicate 2): 112.20%

CC1(C)CC[C@]2(C(=O)O)CC[C@]3(C)C(=CC[C@@H]4[C@@]5(C)C[C@@H](O)[C@H](O)[C@@](C)(CO)[C@@H]5CC[C@]43C)[C@@H]2C1 [Arjunolic acid]
activity at 2 µg/mL ([1]; 3D7, library screen at 2 μg/mL, 120 h, % growth, replicate 1, read-out: Pf_120h_%Growth_Rep1): 72.4% | activity at 2 µg/mL ([1]; 3D7, library screen at 2 μg/mL, 120 h, % growth, replicate 2, read-out: Pf_120h_%Growth_Rep2): 76.3% | percent parasite growth at 2 µg/mL ([2]; 72 h, library screen at 2 μg/mL, 72 h, % growth, replicate 1, read-out: Tg_72h_%Growth_Rep1): 85.6% | percent parasite growth at 2 µg/mL ([2]; 72 h, library screen at 2 μg/mL, 72 h, % growth, replicate 2, read-out: Tg_72h_%Growth_Rep2): 73.6% | activity at 2 µg/mL ([3]; 3D7, library screen at 2 μg/mL, 72 h, % growth, replicate 1, read-out: Pf_72h_%Growth_Rep1): 75.9% | activity at 2 µg/mL ([3]; 3D7, library screen at 2 μg/mL, 72 h, % growth, replicate 2, read-out: Pf_72h_%Growth_Rep2): 83%

CSC[S@+]([O-])C[C@H](CO)NC(=O)/C=C/c1c(C)[nH]c(=O)[nH]c1=O [Sparsomycin]
activity at 2 µg/mL ([1]; 3D7, 120 h, P. falciparum, 120 h, parasite screen 2 μg/mL, % growth, replicate 1, read-out: Pf_120h_%Growth_Rep1): 10.1% | activity at 2 µg/mL ([1]; 3D7, 120 h, P. falciparum, 120 h, parasite screen 2 μg/mL, % growth, replicate 2, read-out: Pf_120h_%Growth_Rep2): -13.2% | percent parasite growth at 2 µg/mL ([2]; 72 h, T. gondii, 72 h, parasite screen 2 μg/mL, % growth, replicate 1, read-out: Tg_72h_%Growth_Rep1): 2.81% | percent parasite growth at 2 µg/mL ([2]; 72 h, T. gondii, 72 h, parasite screen 2 μg/mL, % growth, replicate 2, read-out: Tg_72h_%Growth_Rep2): 27.9% | activity at 2 µg/mL ([3]; 3D7, 72 h, P. falciparum, 72 h, parasite screen 2 μg/mL, % growth, replicate 1, read-out: Pf_72h_%Growth_Rep1): 4.3% | activity at 2 µg/mL ([3]; 3D7, 72 h, P. falciparum, 72 h, parasite screen 2 μg/mL, % growth, replicate 2, read-out: Pf_72h_%Growth_Rep2): -1%

Cc1cc(OC(=O)c2c(C)cc(O)cc2O)cc(O)c1C(=O)O [BIA-L1669]
Pf_120h_%Growth_Rep1 ([1]; P. falciparum 3D7, 120 h, library screen at 2 μg/mL, % growth, replicate 1): 65.54% | Pf_120h_%Growth_Rep2 ([1]; P. falciparum 3D7, 120 h, library screen at 2 μg/mL, % growth, replicate 2): 115.03% | Tg_72h_%Growth_Rep1 ([2]; T. gondii RH, 72 h, library screen at 2 μg/mL, % growth, replicate 1): 166.09% | Tg_72h_%Growth_Rep2 ([2]; T. gondii RH, 72 h, library screen at 2 μg/mL, % growth, replicate 2): 102.01% | Pf_72h_%Growth_Rep1 ([3]; P. falciparum 3D7, 72 h, library screen at 2 μg/mL, % growth, replicate 1): 74.56% | Pf_72h_%Growth_Rep2 ([3]; P. falciparum 3D7, 72 h, library screen at 2 μg/mL, % growth, replicate 2): 54.17%

C=C1CC[C@H](OC(C)=O)C(C)(C)[C@@H]1CC/C(C)=C/CC/C(C)=C/Cc1c(O)cc(C)oc1=O [Sartorypyrone A]
Pf_120h_%Growth_Rep1 ([1]; P. falciparum, 120 h, parasite screen 2 μg/mL, % growth, replicate 1): 16.39% | Pf_120h_%Growth_Rep2 ([1]; P. falciparum, 120 h, parasite screen 2 μg/mL, % growth, replicate 2): 52.54% | Tg_72h_%Growth_Rep1 ([2]; T. gondii, 72 h, parasite screen 2 μg/mL, % growth, replicate 1): 82.97% | Tg_72h_%Growth_Rep2 ([2]; T. gondii, 72 h, parasite screen 2 μg/mL, % growth, replicate 2): 82.11% | Pf_72h_%Growth_Rep1 ([3]; P. falciparum, 72 h, parasite screen 2 μg/mL, % growth, replicate 1): 32.17% | Pf_72h_%Growth_Rep2 ([3]; P. falciparum, 72 h, parasite screen 2 μg/mL, % growth, replicate 2): 81.37%

CCCCCCCCCCCC(=O)N[C@H]1CCOC1=O [Dodecanoyl-L-homoserine lactone]
Pf_120h_%Growth_Rep1 [1, 4]: 96.32% | Pf_120h_%Growth_Rep2 [1, 5]: 89.02% | Tg_72h_%Growth_Rep1 [2, 6]: 110.87% | Tg_72h_%Growth_Rep2 [2, 7]: 103.60% | Pf_72h_%Growth_Rep1 [3, 6]: 84.60% | Pf_72h_%Growth_Rep2 [3, 7]: 89.07%
